Columns and labels:
[1] = molecular target: T1, Acetylcholinesterase (Homo sapiens, UniProt P22303); assay: Inhibition of human recombinant AChE using acetylthiocholine iodide as substrate after 20 mins preincubation by Ellman method
[2] = molecular target: T1, Acetylcholinesterase; assay: Inhibition of human recombinant AChE-induced amyloid beta (1-40) aggregation assessed as fibril formation after 24 hrs by thioflavin T-based fluorometric assay

T1 sequence (P22303 whole entry): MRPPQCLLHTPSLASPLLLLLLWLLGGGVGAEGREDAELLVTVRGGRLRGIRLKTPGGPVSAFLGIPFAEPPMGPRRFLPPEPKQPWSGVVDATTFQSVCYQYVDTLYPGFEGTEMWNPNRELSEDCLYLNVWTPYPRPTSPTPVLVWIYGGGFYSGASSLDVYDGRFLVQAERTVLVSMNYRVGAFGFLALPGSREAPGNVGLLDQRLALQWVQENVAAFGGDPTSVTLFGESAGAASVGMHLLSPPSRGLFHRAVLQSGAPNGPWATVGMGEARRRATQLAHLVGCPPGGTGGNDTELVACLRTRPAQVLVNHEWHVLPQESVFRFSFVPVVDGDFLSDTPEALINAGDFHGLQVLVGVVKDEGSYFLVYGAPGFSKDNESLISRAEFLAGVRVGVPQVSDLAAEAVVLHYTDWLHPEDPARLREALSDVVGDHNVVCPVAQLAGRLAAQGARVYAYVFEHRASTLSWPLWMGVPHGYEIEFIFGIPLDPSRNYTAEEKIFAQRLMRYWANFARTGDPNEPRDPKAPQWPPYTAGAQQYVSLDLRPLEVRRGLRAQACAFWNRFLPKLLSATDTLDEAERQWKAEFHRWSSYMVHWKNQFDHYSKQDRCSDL

## CCN(CCCCCC=Nc1cc(O)c2ccccc2c1O)Cc1ccccc1OC
[1]
  IC50: 45 µM
[2]
  IC50: 45 µM

— BindingDB's records for doi:10.1021/jm200691d (University of Bologna, 2011)
